Experimental data: patent publication US20100267561A1, “HERBICIDAL PYRIDAZINONE DERIVATIVES” (priority 2007, published 2010)

Columns and labels:
Assay type in all cases: in vivo
[1] = system: barnyardgrass (Echinochloa crus-galli); assay: Test A pre-/postemergence plant response
Outline: (§1)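 Greenhouse pot test: loam–sand soil; pre- and postemergence sprays applied same day; post plants 2–10 cm, 1–2 leaves. Readout ~10 d, visual % injury vs untreated (0 = none, 100 = complete control).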

[2] = system: large crabgrass (Digitaria sanguinalis); assay: Test A pre-/postemergence plant response
Outline: as §1

[3] = system: morningglory (Ipomoea coccinea); assay: Test A pre-/postemergence plant response
Outline: as §1

[4] = system: pigweed (Amaranthus retroflexus); assay: Test A pre-/postemergence plant response
Outline: as §1

[5] = system: velvetleaf (Abutilon theophrasti); assay: Test A pre-/postemergence plant response
Outline: as §1

[6] = system: wheat (Triticum aestivum); assay: Test A pre-/postemergence plant response
Outline: as §1

[7] = system: canarygrass (Phalaris minor); assay: Test B postemergence plant response; conditions: for Canarygrass plant response rating: 8 g ai/ha, postemergence, 0-100 scale; for Plant response rating, Canarygrass: Postemergence
Outline: (§2)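 Visual injury ratings on a 0–100 scale, where 100 means complete control, were made 13 to 15 days after postemergence treatment of greenhouse-grown plants at the 1- to 4-leaf stage.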

[8] = system: chickweed (Stellaria media); assay: Test B postemergence plant response; conditions: for Chickweed plant response rating: 8 g ai/ha, postemergence, 0-100 scale; for Plant response rating, Chickweed: Postemergence
Outline: as §2

[9] = system: windgrass (Apera spica-venti); assay: Test B postemergence plant response; conditions: for Windgrass plant response rating: 8 g ai/ha, postemergence, 0-100 scale; for Plant response rating, Windgrass: Postemergence
Outline: as §2

[10] = system: winter barley (Hordeum vulgare); assay: Test B postemergence plant response; conditions: for Barley plant response rating: 8 g ai/ha, postemergence, 0-100 scale; for Plant response rating, Barley: Postemergence, scale 0 to 100, 0 no effect, 100 complete control
Outline: as §2

[11] = system: barnyardgrass (Echinochloa crus-galli); assay: Test B flooded paddy test plant response
Outline: (§3)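 Compounds were added directly to paddy water over 2-leaf-stage plants in pots flooded 3 cm above soil, water depth maintained. Visual injury scored against controls after 13 to 15 days in greenhouse, 0 (none) to 100 (complete control); dash indicates no result.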

[12] = system: ducksalad (Heteranthera limosa); assay: Test B flooded paddy test plant response
Outline: as §3

rice (Oryza sativa) = assay: Test B flooded paddy test plant response
Outline: as §3

[13] = system: umbrella sedge (Cyperus difformis); assay: Test B flooded paddy test plant response
Outline: as §3

[14] = Postemergence, 31 g ai/ha, 0 to 100 scale, 0 no effect, 100 complete control
[15] = Postemergence, 125 g ai/ha, 0 to 100 scale, 0 no effect, 100 complete control
[16] = Preemergence, 31 g ai/ha, 0 to 100 scale, 0 is no effect, 100 is complete control
[17] = Preemergence, 125 g ai/ha, 0 to 100 scale (0 no effect, 100 complete control)
[18] = 31 g ai/ha, scale 0 to 100, 0 no effect, 100 complete control
[19] = 62 g ai/ha, scale 0 to 100, 0 no effect, 100 complete control
[20] = Flood (flooded paddy test), 62 g ai/ha, scale 0 to 100, 0 no effect, 100 complete control
[21] = Flood (flooded paddy test), 125 g ai/ha, scale 0 to 100, 0 no effect, 100 complete control
[22] = Flood (flooded paddy test), 250 g ai/ha, scale 0 to 100, 0 no effect, 100 complete control
[23] = Flood, 31 g ai/ha, scale 0 to 100

Cc1cc(-c2ccc(Cl)cc2)nn1-c1c(OC(=O)c2cccc(Cl)c2)cnn(C)c1=O [Compound 32]
30: Plant response rating, Canarygrass [7, 19] | Plant response rating, Ducksalad [12, 20] | Plant response rating, Ducksalad [12, 23] | Plant response rating, Rice (rice (Oryza sativa); [21]) | Plant response rating, Sedge, Umbrella [13, 20] | Plant response rating, Sedge, Umbrella [13, 21] | Plant response rating, Sedge, Umbrella [13, 22]
60: Plant response rating, Wheat [6, 17]
70: Plant response rating, Barnyardgrass [1, 15] | Plant response rating, Crabgrass, Large [2, 15] | Plant response rating, Barnyardgrass [11, 22]
65: Plant response rating, Barnyardgrass [11, 21] | Plant response rating, Rice (rice (Oryza sativa); [22])
0: Plant response rating, Barnyardgrass [1, 14] | Plant response rating, Morningglory [3, 14] | Plant response rating, Morningglory [3, 15] | Plant response rating, Morningglory [3, 16] | Plant response rating, Morningglory [3, 17] | Plant response rating, Pigweed [4, 14] | Plant response rating, Pigweed [4, 17] | Plant response rating, Velvetleaf [5, 14] | Plant response rating, Velvetleaf [5, 15] | Plant response rating, Velvetleaf [5, 16] | Plant response rating, Wheat [6, 14] | Plant response rating, Wheat [6, 16] | Canarygrass plant response rating [7] | Chickweed plant response rating [8] | Plant response rating, Chickweed ([8]; 16 g ai/ha, scale 0 to 100) | Plant response rating, Chickweed [8, 18] | Windgrass plant response rating [9] | Plant response rating, Windgrass ([9]; 16 g ai/ha, scale 0 to 100) | Barley plant response rating [10] | Plant response rating, Barley ([10]; 16 g ai/ha) | Plant response rating, Barley ([10]; 31 g ai/ha) | Plant response rating, Barley ([10]; 62 g ai/ha) | Plant response rating, Rice (rice (Oryza sativa); [20]) | Plant response rating, Rice (rice (Oryza sativa); [23])
40: Plant response rating, Ducksalad [12, 21] | Plant response rating, Ducksalad [12, 22]
50: Plant response rating, Windgrass [9, 19]
20: Plant response rating, Barnyardgrass [1, 16] | Plant response rating, Wheat [6, 15] | Plant response rating, Chickweed [8, 19] | Plant response rating, Barnyardgrass [11, 20] | Plant response rating, Sedge, Umbrella [13, 23]
90: Plant response rating, Barnyardgrass [1, 17] | Plant response rating, Crabgrass, Large [2, 16] | Plant response rating, Crabgrass, Large [2, 17]
10: Plant response rating, Crabgrass, Large [2, 14] | Plant response rating, Pigweed [4, 15] | Plant response rating, Velvetleaf [5, 17] | Plant response rating, Canarygrass ([7]; 16 g ai/ha, scale 0 to 100) | Plant response rating, Canarygrass [7, 18] | Plant response rating, Barnyardgrass [11, 23]

Cc1cc(-c2ccc(Cl)cc2)nn1-c1c(OS(=O)(=O)c2ccccc2)cnn(C)c1=O [Compound 35]
60: Plant response rating, Barnyardgrass [1, 14] | Plant response rating, Wheat [6, 15]
90: Plant response rating, Barnyardgrass [1, 15] | Plant response rating, Crabgrass, Large [2, 15] | Plant response rating, Crabgrass, Large [2, 16]
80: Plant response rating, Barnyardgrass [1, 16] | Plant response rating, Wheat [6, 17]
40: Plant response rating, Crabgrass, Large [2, 14] | Plant response rating, Windgrass [9, 19]
45: Plant response rating, Canarygrass [7, 19]
0: Plant response rating, Morningglory [3, 14] | Plant response rating, Morningglory [3, 15] | Plant response rating, Morningglory [3, 16] | Plant response rating, Morningglory [3, 17] | Plant response rating, Pigweed [4, 14] | Plant response rating, Pigweed [4, 15] | Plant response rating, Pigweed [4, 16] | Plant response rating, Velvetleaf [5, 14] | Plant response rating, Velvetleaf [5, 15] | Plant response rating, Velvetleaf [5, 16] | Plant response rating, Velvetleaf [5, 17] | Plant response rating, Wheat [6, 14] | Canarygrass plant response rating [7] | Plant response rating, Canarygrass ([7]; 16 g ai/ha, scale 0 to 100) | Chickweed plant response rating [8] | Plant response rating, Chickweed ([8]; 16 g ai/ha, scale 0 to 100) | Plant response rating, Chickweed [8, 18] | Plant response rating, Chickweed [8, 19] | Windgrass plant response rating [9] | Plant response rating, Windgrass ([9]; 16 g ai/ha, scale 0 to 100) | Barley plant response rating [10] | Plant response rating, Barley ([10]; 16 g ai/ha) | Plant response rating, Barnyardgrass [11, 20] | Plant response rating, Barnyardgrass [11, 21] | Plant response rating, Barnyardgrass [11, 23] | Plant response rating, Ducksalad [12, 20] | Plant response rating, Ducksalad [12, 21] | Plant response rating, Ducksalad [12, 23] | Plant response rating, Rice (rice (Oryza sativa); [20]) | Plant response rating, Rice (rice (Oryza sativa); [21]) | Plant response rating, Rice (rice (Oryza sativa); [23]) | Plant response rating, Sedge, Umbrella [13, 20] | Plant response rating, Sedge, Umbrella [13, 21] | Plant response rating, Sedge, Umbrella [13, 23]
100: Plant response rating, Barnyardgrass [1, 17] | Plant response rating, Crabgrass, Large [2, 17]
5: Plant response rating, Canarygrass [7, 18] | Plant response rating, Barley ([10]; 31 g ai/ha)
30: Plant response rating, Pigweed [4, 17]
35: Plant response rating, Barley ([10]; 62 g ai/ha)
20: Plant response rating, Wheat [6, 16]
